Data from patent US20230310427A1, “NEW THERAPEUTIC USE OF RILPIVIRINE” (UNIVERSITY OF SOUTH AUSTRALIA, priority 2020, published 2023).

Legend:
PC3 cells = test: Cell cycle analysis (flow cytometry); format: cell-based; settings: 48 hour treatment
Experimental: (§1) The effect of Rilpivirine on cell cycle distribution in different cancer cell lines was evaluated by flow cytometric analysis. Briefly, cells were seeded in 6-well plates at a density of 6 × 10^4 cells/well. All plates were incubated overnight at 37° C. in a 5% CO2 incubator. Following the incubation, the test compounds (Rilpivirine (Ril) and comparators, Alisertib (Ali; a known Aurora A inhibitor) and Etravirine (Etra; 4-[[6-amino-5-bromo-2-[(4-cyanophenyl)amino]-4-pyrimidinyl]oxy]-3,5-dimethylbenzonitrile - a structurally similar NNRTI drug compound sold under the brand name Intelence® (Janssen Therapeutics)) were added to individual wells and the plates were incubated at same condition for 24 h, 48 h or 72 h. Subsequently, the medium was removed from the wells and transferred into fluorescence-activated cell sorting (FACS) tubes. The adherent cells remaining were trypsinised, re-suspended in media and transferred into the FACS tubes. Cells were centrifuged, fixed with cold 70% ethanol for 15 min and pelleted. The pelleted cells were then re-suspended in 200 µL propidium iodide (PI) solution (50 µg/mL propidium iodide, 0.1 mg/mL ribonuclease A, 0.1% sodium citrate, 0.1% triton X-100) and incubated in the dark for 1.5 h at room temperature. Following the incubation, 200 µL PBS was added. Samples were assessed using a flow cytometer (Cytoflex; Beckman Coulter Inc, Brea, CA, United States of America) and data were analysed using the Cytexpert software.

T47D cells = test: Cell cycle analysis (flow cytometry); format: cell-based; settings: 48-hour treatment
Experimental: as §1

Aurora A kinase = target: T1, Aurora A kinase (Homo sapiens, UniProt O14965); test: Kinase assay; format: biochemical; settings: kinase inhibition profiling (FIG. 2), concentration not given
T1 construct: purchased Promega (ADP-Glo kits) or Reaction Biology Corporation / Eurofins discovery services (external)
T1 sequence (O14965 1-403): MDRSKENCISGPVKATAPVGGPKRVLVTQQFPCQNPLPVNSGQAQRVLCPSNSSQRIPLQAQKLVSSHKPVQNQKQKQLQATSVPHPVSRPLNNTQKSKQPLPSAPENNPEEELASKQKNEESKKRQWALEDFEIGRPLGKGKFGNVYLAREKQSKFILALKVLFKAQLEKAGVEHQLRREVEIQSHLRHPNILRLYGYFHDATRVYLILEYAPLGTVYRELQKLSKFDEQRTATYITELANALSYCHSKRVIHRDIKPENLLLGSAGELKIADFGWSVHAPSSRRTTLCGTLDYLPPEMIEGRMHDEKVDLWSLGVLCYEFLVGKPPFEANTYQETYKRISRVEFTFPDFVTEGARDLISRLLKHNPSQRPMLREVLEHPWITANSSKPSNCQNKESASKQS
Experimental: (§2) The ability of compounds to inhibit kinases was measured using ADP-Glo^Tm assay kits (Promega, Madison, WI, United States of America) or externally using radioisotope based assays (Reaction Biology Corporation, Malvern, PA, United States of America and Eurofins discovery services, France). The ADP-Glo assay was performed as reported previously (Basnet SK et al., Mol Pharmacol 88(5):935-948, 2015).The assay plate was read for luminescence using Envision multi-label plate reader (PerkinElmer, Waltham, MA, United States of America). Half-maximal inhibition (IC50) values were determined from a plot of percent residual activity versus concentration of test compounds using GraphPad Prism software. Ki values were calculated from IC50 values using the Cheng-Prusoff equation: Ki= IC50/ [1 + ([ATP]/Km ATP)], where [ATP] is the ATP concentration used for the IC50 determination and Km ATP for each kinase is determined from an individual experiment.

Aurora B kinase = target: T2, Aurora B kinase (Homo sapiens, UniProt Q96GD4); test: Kinase assay; format: biochemical; settings: kinase inhibition profiling (FIG. 2), concentration not given
T2 construct: purchased Promega (ADP-Glo kits) or Reaction Biology Corporation / Eurofins discovery services (external)
T2 sequence (Q96GD4 whole entry): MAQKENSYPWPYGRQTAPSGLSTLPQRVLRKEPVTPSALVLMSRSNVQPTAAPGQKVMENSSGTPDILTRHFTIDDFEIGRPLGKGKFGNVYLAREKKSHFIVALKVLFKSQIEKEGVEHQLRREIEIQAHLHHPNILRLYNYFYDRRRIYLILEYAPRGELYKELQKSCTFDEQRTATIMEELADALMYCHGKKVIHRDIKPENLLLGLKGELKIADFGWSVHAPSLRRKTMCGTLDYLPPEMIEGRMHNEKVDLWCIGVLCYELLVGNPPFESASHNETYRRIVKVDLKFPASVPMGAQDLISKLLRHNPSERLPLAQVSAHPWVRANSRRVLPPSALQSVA
Experimental: as §2

| inhibitory activity against Aurora A (Aurora A kinase) | inhibitory activity against Aurora B (Aurora B kinase) | SMILES | cell cycle arrest (PC3 cells; p53 mutant) | cell cycle arrest (T47D cells; p53 mutant) | cell cycle arrest (PC3 cells; 10 µM) | cell cycle arrest (T47D cells; 10 µM) |
| --- | --- | --- | --- | --- | --- | --- |
|  |  | COc1cc(Nc2ncc3c(n2)-c2ccc(Cl)cc2C(c2c(F)cccc2OC)=NC3)ccc1C(=O)O [Alisertib] | induce G2/M arrest | arrest T47D breast cancer cells in G2/M phase |  |  |
| no inhibitory activity | no inhibitory activity | Cc1cc(C#N)cc(C)c1Oc1nc(Nc2ccc(C#N)cc2)nc(N)c1Br [Etravirine, 4-[[6-amino-5-bromo-2-[(4-cyanophenyl)amino]-4-pyrimidinyl]oxy]-3,5-dimethylbenzonitrile] |  |  | did not induce G2/M arrest | no G2/M arrest |
